# Source: US7011845B2, “β-glucans encapsulated in liposomes” (MCP Hahnemann University, priority 2000, dated 2006)
# Legend:
# [1] = Quantification of lentinan in serum after oral administration (Fungitec G test); type: in vivo; conditions: mice fed orally four times with 100 μg (total 400 μg) during 4 hr, serum 2 hr after last administration, mean ± SD
# Method: Formulations of 400 μg of lentinan dissolved in PBS or associated with liposomes were delivered orally in four doses to fasted mice over a period of 4 hrs. The level of lentinan in blood serum was measured 2 hr after the delivery using the Fungitec G test (Seikagaku Co., Inc.), according to the manufacturer's protocol. Background activity was determined by analyzing lentinan levels in sera of control mice.
# We first investigated whether lentinan dissolved in PBS or associated with liposomes would penetrate through the epithelial barrier of the gut. Mice were fed with four doses of liposome-associated or unencapsulated lentinan (total concentration of 400 μg) over a 4-hr period. The level of lentinan in blood serum was analyzed 2 hr after lentinan administration.
# [2] = test system: splenocytes stimulated with rgp160
substance,measurement,setting,value
Lentinan,Serum concentration of lentinan,[1]; listed as Unencapsulated lentinan,"1,325 ± 1,241 pg/ml"
same,Serum concentration of lentinan,[1]; listed as unencapsulated lentinan,"1,325±1,241 pg/ml"
same,Toxic effect to the cells,[2],without any detectable toxic effect
same,Env-specific IFN-γ level relative to stimulation with rgp160 in the absence of lentinan,"[2]; lentinan 3 μg/ml to 100 μg/ml, 3 days, FIG. 3",~2 fold
same,Effect on env-specific IFN-γ production,[2]; lentinan higher than 100 μg/ml or lower than 3 μg/ml,smaller effect
